Test results reported in patent US20220007646A1, “METHOD TO CONTROL A PHYTHOPATOGENIC FUNGI SELECTED FROM UNCINULA NECATOR, PLASMOPARA VITICOLA AND GLOEOSPORIUM AMPELOPHAGUM IN GRAPES BY COMPOSITIONS COMPRISING MEFENTRIFLUCONAZOLE” (BASF AGRO B.V., priority 2018, published 2022).

How the values were obtained:
Uncinula necator = experiment: Green house: control of powdery mildew on grape caused by Uncinula necator (UNCINE P7); format: in vivo; settings: grape plants sprayed, inoculated 7 days later, assessed after 22 days
Procedure: Control of Powdery Mildew on Grape Caused by Uncinula necator ([…]7) Grape cuttings were grown in pots to the 4 to 5 leaf stage. These plants were sprayed to run-off with a spray solution, containing the concentration of active ingredient or their mixture mentioned in the table below. Seven days later the treated plants were inoculated with spores of Uncinula necator by shaking heavily infested stock plants over the treated pots. After cultivation in the greenhouse for 22 days at 21-23° C. and a relative humidity between 40 to 70% the extent of fungal attack on the leaves was visually assessed as % diseased leaf area. The disease ratings were converted into efficacies. […] The expected efficacies of active compound mixtures were determined using Colby's formula [R. S. Colby, “Calculating synergistic and antagonistic responses of herbicide combinations”, Weeds 15, 20-22 (1967)] and compared with the observed efficacies.

Plasmopara viticola = experiment: Green house: fungicidal control of grape downy mildew caused by Plasmopara viticola (PLASVI P4); format: in vivo; settings: grape plants sprayed, inoculated after four days
Procedure: Fungicidal Control of Grape Downy Mildew Caused by Plasmopara viticola […]4) Grape cuttings were grown in pots to the 4 to 5 leaf stage. These plants were sprayed to run-off with a spray solution, containing the concentration of active ingredient or their mixture mentioned in the table below. The plants were allowed to air-dry and cultivated in a greenhouse for four days. Then they were inoculated with an aqueous spore suspension of Plasmopara viticola by spraying it at the lower leaf-side. Then the trial plants were immediately transferred for 24 h to a humid chamber with 22-24° C. and a and a saturated relative humidity. For a period of 5 days, cultivation followed in a greenhouse at 20-25° C. and a relative humidity about 50-80%. To stimulate the outbreak of the disease symptoms, the plants were transferred to a humid chamber again for 24 hours. Then the extent of fungal attack on the lower leaf surface was visually assessed as % diseased leaf area. The disease ratings were converted into efficacies. […] The expected efficacies of active compound mixtures were determined using Colby's formula [R. S. Colby, “Calculating synergistic and antagonistic responses of herbicide combinations”, Weeds 15, 20-22 (1967)] and compared with the observed efficacies.

[1] = application rate 5 g/ha, 0 = as untreated, 100 = not infected

CC(O)(Cn1cncn1)c1ccc(Oc2ccc(Cl)cc2)cc1C(F)(F)F (centres unmarked) [I, mefentrifluconazole]
Observed efficacy (Uncinula necator; [1]): 72 | Observed efficacy (Plasmopara viticola; application rate 1 g/ha): 2 | Observed efficacy (Plasmopara viticola; [1]): 1

Cn1cc(C(=O)Nc2ccccc2-c2cc(F)c(F)c(F)c2)c(C(F)F)n1 [II-6, fluxapyroxad]
Observed efficacy (Uncinula necator; application rate 0.5 g/ha): 52

Cc1cc(C(F)(F)F)nn1CC(=O)N1CCC(c2nc(C3=NOC(c4c(F)cccc4F)C3)cs2)CC1 (centres unmarked) [II-9, oxathiapiprolin]
Observed efficacy (Plasmopara viticola; application rate 0.1 g/ha): 18
